Laboratory results: paper PMC4081560 (PLoS ONE, 2014)
“And” between values parts separate entries of the source, which are not always exact repeats. Identical values can stand only once. Like-named read-outs stand apart in the source and are kept apart here. Marks after values point to notes of the source that are not given here.

What was measured:
Parameters in all cases: species or system DBA/2 mice
Conditions in all cases: mouse, in vivo
[1] = tested on: oseltamivir-resistant K/2785 virus
[2] = tested on: oseltamivir-resistant K/2785 virus; remark: listed apart in the source
[3] = tested on: oseltamivir-resistant K/2785 virus; remark: listed apart in the source

Row | SMILES | MDD ± SD [1] | Survival/total [1] | Synergism (MacSynergy II) [1] [%] | MDD ± SD (mean day of death prior to 14 dpi) [2] | Survival/total [2] | Viral titers in lungs ± SD [3] | infected mice saved from death [2]
1 | CCC(CC)[C@H](NC(C)=O)[C@@H]1[C@H](O)[C@@H](C(=O)O)C[C@H]1N=C(N)N [Peramivir] | 9.8 ± 1.5 days and 10.1 ± 1.2 days and 10.6 ± 0.9 days | 0/10 (00.0%) and 2/10 (20.0%) and 5/10 (50.0%)* | 0 | 10.1 ± 1.1 days and 10.2 ± 0.4 days and 10.5 ± 2.1 days and 11.0 ± 1.4 days | 0/7 (0.0%) and 1/7 (14.3%) and 5/7 (71.4%)* | 7.34±0.17 log10(PFU/ml/g) and 6.30±0.13 log10(PFU/ml/g) and 7.13±0.09 log10(PFU/ml/g) and 6.29±0.27 log10(PFU/ml/g) and 7.29±0.15 log10(PFU/ml/g) and 6.55±0.14 log10(PFU/ml/g) | –
2 | NC(=O)c1nc(F)cnc1O [Favipiravir, 6-fluoro-3-hydroxy-2-pyrazinecarboxamide] | 10.6 ± 0.9 days and 10.7 ± 0.6 days and 9.4 ± 0.5 days | 5/10 (50.0%)* and 8/10 (80.0%)*** and 3/10 (30.0%) | 0 | 9.8 ± 0.8 days and 10.0 ± 0.0 days and 11 days | 2/7 (28.6%) and 4/7 (57.1%) and 6/7 (85.7%)** and 7/7 (100.0%)*** | 6.95±0.14 log10(PFU/ml/g) and 5.75±0.19 log10(PFU/ml/g) and 7.31±0.01 log10(PFU/ml/g) and 6.88±0.12 log10(PFU/ml/g) | more than 80%
